In the data set the target is T1, Nuclear receptor subfamily 1 group I member 3 (Homo sapiens, UniProt Q14994).
T1 sequence (Q14994 whole entry): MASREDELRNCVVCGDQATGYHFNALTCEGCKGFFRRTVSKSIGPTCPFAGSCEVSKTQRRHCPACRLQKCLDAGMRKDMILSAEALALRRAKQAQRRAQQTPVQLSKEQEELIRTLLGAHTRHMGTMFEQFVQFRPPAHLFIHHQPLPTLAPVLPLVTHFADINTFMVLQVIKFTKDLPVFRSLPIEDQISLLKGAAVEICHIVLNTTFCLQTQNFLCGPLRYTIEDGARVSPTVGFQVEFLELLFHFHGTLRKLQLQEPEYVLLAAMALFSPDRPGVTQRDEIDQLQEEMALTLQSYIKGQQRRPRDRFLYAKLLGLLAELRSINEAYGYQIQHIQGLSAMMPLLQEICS
Nature of the data set: Agonist activity at human CAR expressed in human HepG2 cells assessed as induction of CYP2B6 mRNA expression at 1 to 10 uM after 24 hrs by qRT-PCR method. Conditions: hepg2, 24 h; call rule not given here. Format: cell-based. On the technique in general: Real-time PCR tracks product formation cycle by cycle.

For the compound `COc1cccc(-c2nc(OC)c3ccccc3n2)c1`, the result was Active.

The values are drawn from ChEMBL document CHEMBL3822384, “2-(3-Methoxyphenyl)quinazoline Derivatives: A New Class of Direct Constitutive Androstane Receptor (CAR) Agonists” (J Med Chem, 2016).
